Reference: patent US6531584B1, “2'modified oligonucleotides” (ISIS Pharmaceuticals, Inc., priority 1990, dated 2003)
Values joined by “and” are separate entries in the source; they are usually repeats but may differ in a detail not shown here. Identical values can stand only once. Strand notation (5' to 3'): a small letter for the sugar, then the base; units joined by * are phosphorothioate-linked, units joined directly phosphodiester-linked; [ ] holds rarer units or linkages, { } end groups; capitals alone tell only the bases. d = 2'-deoxy (DNA); m = 2'-O-methyl; f = 2'-fluoro

Legend:
PKC-α mRNA = experiment: Northern blot analysis of PKC-α mRNA levels; format: cell-based, human; settings: FIGS. 3 to 5
Description: Oligonucleotides having SEQ ID NO:4 were synthesized as uniformly phosphorothioate chimeric oligonucleotides having a centered deoxy gap of varying lengths flanked by 2′-O-methylated regions. These oligonucleotides (500 nM concentration) were tested for effects on PKC-α mRNA levels by Northern blot analysis.

ras mRNA = experiment: Northern blot analysis of ras expression in T24 cells; format: cell-based, human; parameters: inhibition of ras expression / decrease of ras mRNA: concentration or dose not given beside the values; settings: T24 cells, Northern blot
Description: The human urinary bladder cancer cell line T24 was obtained from the American Type Culture Collection (Rockville Md.). Cells were grown in McCoy's 5A medium with L-glutamine (GIBCO-BRL, Gaithersburg, Md.), supplemented with 10% heat-inactivated fetal calf serum and 50 U/ml each of penicillin and streptomycin. Cells were seeded on 100 mm plates. When they reached 70% confluency, they were treated with oligonucleotide. Plates were washed with 10 ml prewarmed PBS and 5 ml of OptiMEM (GIBCO) reduced-serum medium containing 2.5 μl DOTMA. Oligonucleotide was then added to the desired concentration. After 4 hours of treatment, the medium was replaced with McCoy's medium. Cells were harvested 48 hours after oligonucleotide treatment and RNA was isolated using a standard CsCl purification method. [Kingston in Current Protocols in Molecular Biology, F. M. Ausubel, R. Brent, R. E. Kingston, D. D. Moore, J. A. Smith, J. G. Seidman and K. Strahl, Eds., John Wiley and Sons, New York.] The human epithelioid carcinoma cell line HeLa 229 was obtained from the American Type Culture Collection (Bethesda, Md.). HeLa cells were maintained as monolayers on 6-well plates in Dulbecco's Modified Eagle's medium (DMEM) supplemented with 10% fetal bovine serum and 100 U/ml penicillin. Treatment with oligonucleotide and isolation of RNA were essentially as described above for T24 cells.
Northern hybridization: 10 μg of each RNA was electrophoresed on a 1.2% agarose/formaldehyde gel and transferred overnight to GeneBind 45 nylon membrane (Pharmacia LKB, Piscataway, N.J.) using standard methods. [Kingston in Current Protocols in Molecular Biology, F. M. Ausubel, R. Brent, R. E. Kingston, D. D. Moore, J. A. Smith, J. G. Seidman and K. Strahl, Eds., John Wiley and Sons, New York.] RNA was UV-crosslinked to the membrane. Double-stranded ^32P-labeled probes were synthesized using the Prime a Gene labeling kit (Promega, Madison, Wis.). The ras probe was a SalI-NheI fragment of a cDNA clone of the activated (mutant) H-ras mRNA having a GGC-to-GTC mutation at codon-12. The control probe was G3PDH. Blots were prehybridized for 15 minutes at 68° C. with the QuickHyb hybridization solution (Stratagene, La Jolla, Calif.). The heat-denatured radioactive probe (2.5×10^6 counts/2 ml hybridization solution) mixed with 100 μl of 10 mg/ml salmon sperm DNA was added and the membrane was hybridized for 1 hour at 68° C. The blots were washed twice for 15 minutes at room temperature in 2×SSC/0.1% SDS and once for 30 minutes at 60° C. with 0.1×SSC/0.1%SDS. Blots were autoradiographed and the intensity of signal was quantitated using an ImageQuant PhosphorImager (Molecular Dynamics, Sunnyvale, Calif.). Northern blots were first hybridized with the ras probe, then stripped by boiling for 15 minutes in 0.1×SSC/0.1%SDS and rehybridized with the control G3PDH probe to check for correct sample loading.

[1] = test system: complementary RNA strand (the sense strand); experiment: Thermal melting analysis of 2′-deoxy-2′-fluoro modified antisense oligonucleotides with complementary RNA; format: binding; settings: for Tm (° C.)/ subst.: change in Tm per 2′-fluoro substitution; for Tm (° C.): second Tm column: change in Tm versus unmodified oligonucleotide
c-raf mRNA = experiment: Northern blot analysis of c-raf mRNA expression in T24 cells; format: cell-based, human
Excerpt: Chimeric oligonucleotides having SEQ ID NO:7 were designed using the Genbank c-raf sequence HUMRAFR (Genbank listing x03484), synthesized and tested for inhibition of c-raf mRNA expression in T24 bladder carcinoma cells using a Northern blot assay. These chimeric oligonucleotides have central “gap” regions of 6, 8 or 10 deoxynucleotides flanked by two regions of 2′-O-methyl modified nucleotides, and are shown in Table 10. Backbones were uniformly phosphorothioate. […] These oligonucleotides are preferred.
The human urinary bladder cancer cell line T24 was obtained from the American Type Culture Collection (Rockville, Md.). Cells were grown in McCoy's 5A medium with L-glutamine (GIBCO-BRL, Gaithersburg, Md.), supplemented with 10% heat-inactivated fetal calf serum and 50 U/ml each of penicillin and streptomycin. Cells were seeded on 100 mm plates. When they reached 70% confluency, they were treated with oligonucleotide. Plates were washed with 10 ml prewarmed PBS and 5 ml of OptiMEM reduced-serum medium containing 2.5 μl DOTMA. Oligonucleotide with lipofectin was then added to the desired concentration. After 4 hours of treatment, the medium was replaced with McCoy's medium. Cells were harvested 24 to 72 hours after oligonucleotide treatment and RNA was isolated using a standard CsCl purification method. [Kingston in Current Protocols in Molecular Biology, F. M. Ausubel, R. Brent, R. E. Kingston, D. D. Moore, J. A. Smith, J. G. Seidman and K. Strahl, Eds., John Wiley and Sons, New York.] Total RNA was isolated by centrifugation of cell lysates over a CsCl cushion. RNA samples were electrophoresed through 1.2% agarose-formaldehyde gels and transferred to hybridization. membranes by capillary diffusion over a 12-14 hour period. The RNA was cross-linked to the membrane by exposure to UV light in a Stratalinker (Stratagene, La Jolla, Calif.) and hybridized to random-primed ^32P-labeled c-raf cDNA probe (obtained from ATCC) or G3PDH probe as a control. RNA was quantitated using a Phosphorimager (Molecular Dynamics, Sunnyvale, Calif.).

[2] = test system: mutant (activated) H-ras RNA; format: cell-based, human
[3] = first G°37 column: free energy of duplex with complementary RNA
[4] = second G°37 column: change versus unmodified oligonucleotide

In the case of “AoAoAoAoCoGsTsCsAsGsCsCsAsTsGoGoToCoCoC (AAAACGTCAGCCATGGTCCC; listed as DNA, chemistry not fully specified) [Oligonucleotide 7273]”, the “reduction of PKC-α mRNA levels” value (PKC-α mRNA) is reported as “more active than their 2′-O-methyl counterparts”.

For “AsAoAoAoCoGsTsCsAsGsCsCsAsTsGoGoToCoCsC (AAAACGTCAGCCATGGTCCC; linkages s1 o4 s9 o4 s1 (s phosphorothioate, o phosphodiester), sugars by position and methylation of C not given here; further chemistry not fully specified) [Oligonucleotide 7008]”, the “reduction of PKC-α mRNA levels” value (PKC-α mRNA) was “show reduction of PKC-α mRNA”.

With “AsAoAoAoCoGsTsCsAsGsCsCsAsTsGoGoToCoCsC (AAAACGTCAGCCATGGTCCC; listed as DNA, chemistry not fully specified) [Oligonucleotide 7294]” the “reduction of PKC-α mRNA levels” value (PKC-α mRNA) was “more active than their 2′-O-methyl counterparts”.

For “AsAsAsAsCsGsTsCsAsGsCsCsAsTsGsGsTsCsCsC (AAAACGTCAGCCATGGTCCC; 2'-O-methyl/deoxy P=S chimera, chemistry not fully specified) [Oligonucleotide 5352]”, the “reduction of PKC-α mRNA levels” value (PKC-α mRNA) was “most active”.

With “AsAsAsAsCsGsTsCsAsGsCsCsAsTsGsGsTsCsCsC (dA*dA*dA*dA*dC*dG*dT*dC*dA*dG*dC*dC*dA*dT*dG*dG*dT*dC*dC*dC) [Oligonucleotide 3522]” the “reduction of PKC-α mRNA levels” value (PKC-α mRNA) was “show reduction of PKC-α mRNA”.

“CTTATATTCCGTCATCGCTC [Oligonucleotide 2502]” was tested, and the “inhibition of ras expression / decrease of ras mRNA” value (ras mRNA; listed as 2502) was 26%.

For “CTTATATTCCGTCATCGCTC [Oligonucleotide 4998]”, the “inhibition of ras expression / decrease of ras mRNA” value (ras mRNA; listed as 4998) was 84%.

In the case of “CGA CUAUGCAAG UAC (CGACUAUGCAAGUAC; chemistry not fully specified)”, the “Tm (° C.)/ subst.” value [1] is reported as “+1.7 °C”, the “G°37” value [1, 3] is reported as -16.18 ± 0.08 kcal/mol and the “G°37” value [1, 4] is reported as -6.07 ± 0.09 kcal/mol. The “Tm (° C.)” value [1] was “+13.8 °C”.

For “CGACUAUGCAAG UAC (CGACUAUGCAAGUAC; chemistry not fully specified)”, the “Tm (° C.)/ subst.” value [1] was “+1.8 °C”, the “G°37” value [1, 3] was -19.85 ± 0.05 kcal/mol and the “G°37” value [1, 4] was -9.74 ± 0.06 kcal/mol. The “Tm (° C.)” value [1] was “+20.1 °C”.

For “CTCGCCCGCTCCTCCTCCCC (2'-O-methyl P=S chimera, chemistry not fully specified) [ISIS 7849]”, the “inhibition of c-raf mRNA expression” value (c-raf mRNA) was over 70%.

For “C^FC^FA^F C^FA^FCd CdGdAd CdGdGd C^FG^FC^F C^FC^F [Oligonucleotide 4690]”, the “inhibition of ras expression / decrease of ras mRNA” value (ras mRNA) was 82%.

“C^MC^MA^M C^MA^MC^M C^MG^MAd C^MG^MG^M C^MG^MC^M C^MC^M [Oligonucleotide 3975]” was tested, and the “inhibition of ras-luciferase activity” value [2] was “neither of the oligonucleotides having either the one or the three 2′-deoxy-erythro-pentofuranosyl nucleotide subsequences showed significant activity”.

With “C^MC^MA^M C^MA^MC^M C^MGdAd CdG^MG^M C^MG^MC^M C^MC^M [Oligonucleotide 3979]” the “inhibition of ras-luciferase activity” value [2] was “neither of the oligonucleotides having either the one or the three 2′-deoxy-erythro-pentofuranosyl nucleotide subsequences showed significant activity”.

“C^MC^MA^M C^MA^MC^M CdGdAd CdGdG^M C^MG^MC^M C^MC^M [Oligonucleotide 3980]” was tested, and the “inhibition of ras expression / decrease of ras mRNA” value (ras mRNA) was 61% and the “inhibition of ras-luciferase activity” value [2] was “next greatest inhibition”.

In the case of “C^MC^MA^M C^MA^MCd CdGdAd CdGdGd C^MG^MC^M C^MC^M (antisense CCACACCGACGGCGCCC; sugars from the 5' end m5 d7 m5, backbone and methylation of C not given here) [Oligonucleotide 3985, 2′-O-methyl P═S chimera, 7-deoxy gap]”, the “inhibition of ras expression / decrease of ras mRNA” value (ras mRNA) is reported as 95% and 81% and the “inhibition of ras-luciferase activity” value [2] is reported as “greatest inhibition”.

In the case of “C^MC^MA^M C^MAdCd CdGdAd CdGdGd CdG^MC^M C^MC^M [Oligonucleotide 3984]”, the “inhibition of ras expression / decrease of ras mRNA” value (ras mRNA) is reported as 81%.

For “CsCsAsCoAoCoCoGoAoCoGoGoCoGsCsCsC [Oligonucleotide 4241]”, the “effect on ras expression” value [2] was “completely inactive”.

In the case of “CsCsAsCsAsCsCsGsAoCsGsGsCsGsCsCsC [Oligonucleotide 4248]”, the “effect on ras expression” value [2] is reported as “just as active as a full P═S molecule”.

For “Oligonucleotide 4689: SEQ ID NO:1, 2′-fluoro-modified nucleotides flanking a 5-deoxy gap (CCACACCGACGGCGCCC; sugars from the 5' end f6 d5 f6, all phosphorothioate, methylation of C not given here)”, the “inhibition of ras expression / decrease of ras mRNA” value (ras mRNA) was 63%.

For “TCCGTCATCGCTCCTCAGGG [Oligonucleotide 5122]”, the “inhibition of ras expression / decrease of ras mRNA” value (ras mRNA; listed as 5122) was 15%.

For “TCCCGCCTGTGACATGCATT (2'-O-methyl P=S chimera, 6-deoxy gap, chemistry not fully specified) [ISIS 6720]”, the “inhibition of c-raf mRNA expression” value (c-raf mRNA) was “greater than 70%”.

With “TsCsTs CsGsCs TsGsGs TsGsAs GsTsTs TsC (TCTCGCTGGTGAGTTTC; all phosphorothioate, sugars by position and methylation of C not given here) [Oligonucleotide 7082]” the “reduction of PKC-α mRNA levels” value (PKC-α mRNA) was “most active in reducing PKC-α mRNA levels”.

“TsTsCs TsCsGs CsTsGs GsTsGs AsGsTs TsTsC (TTCTCGCTGGTGAGTTTC; all phosphorothioate, sugars by position and methylation of C not given here) [Oligonucleotide 6632]” was tested, and the “reduction of PKC-α mRNA levels” value (PKC-α mRNA) was “most active in reducing PKC-α mRNA levels”.

With “oligonucleotide with the 2′-O-propyl diester flanking regions: SEQ ID NO:1, phosphorothioate in the 7-base deoxy gap only, phosphodiester 2′-O-propyl flanking regions (DNA CCACACCGACGGCGCCC; sugars by position and backbone not given here; 2'-O-propyl phosphodiester flanks, 7-base phosphorothioate deoxy gap)” the “effect on ras expression” value [2] was “able to inhibit ras expression”.
